{"source": "patent US20140056952A1", "about": "“METHODS AND COATINGS FOR TREATING BIOFILMS” (President and Fellows of Harvard College, priority 2011, published 2014)", "key": {"[1]": {"system": "Proteus mirabilis strain BB2000", "experiment": "Biofilm formation in polystyrene wells, crystal violet OD 595 nm", "type": "cell-based", "settings": "1 mM, 48 hours at 30° C., vs no treatment control", "method": "To examine the effects of polyamines on biofilm formation, wells were initially treated with water (no treatment), 1 mM norspermidine, and 1 mM norspermine in 3 ml M9+glucose before inoculation with P. mirabilis. Biofilms were permitted to grow for 48 hours at 30° C. without shaking The amount of biofilm formed was assessed with the standard assay of crystal violet staining (O'Toole G et al., Biofilm formation as microbial development, Annu Rev. Microbiol. (2000) 54:49-79); supernatant was removed from the wells and crystal violet (at […]) was then incubated in each well for 15 minutes at room temperature, followed by removal of the crystal violet from the wells and a subsequent washes with water. Any crystal violet attached the wells was next solubilized with 95% ethanol for 15 minutes at room temperature, and the subsequent optical density at 595 nm in each well was measured with a multiplate reader."}, "[2]": {"system": "B. subtilis strain NCBI3610", "experiment": "Pellicle (biofilm) formation inhibition assay in liquid biofilm-inducing medium", "type": "cell-based, Bacillus subtilis"}, "TasA-mCherry": {"system": "TasA-mCherry", "experiment": "Fluorescence microscopy of TasA-mCherry fusion", "type": "cell-based, Bacillus subtilis", "settings": "norspermidine 50 μM", "method": "NCBI 3610 containing the tasA-mCherry fusion (DR30) was grown without shaking in a biofilm medium (upper row) or in the same medium applied with norspermidine (50 μM, lower row). Cells were washed in PBS, and visualized by fluorescence microscopy.\n(§1) To investigate further, exopolysaccharide was visualized by fluorescence microscopy using a conjugate of the carbohydrate-binding protein concanavalin A with Texas Red (FIG. 5) (McSwain et al., 2005). As evidence of specificity, the conjugate decorated wild-type cells but not cells from a mutant (Δeps) blocked in exopolysaccharide production (FIG. 6A). Indeed, at an exposure at which concanavalin A staining with the wild type strain gave an extremely bright fluorescent signal, little or no signal could be detected for the Δeps mutant, except at long exposures and enhanced brightness (FIG. 6A). Next, we investigated the effects of norspermidine and spermidine. […] Therefore, the difference in the staining was evidently due to differential levels of cell-associated exopolysaccharide. […] Thus, while not being bound to any theory, it is believed that norspermidine disrupts the matrix and by targeting exopolysaccharide."}, "[3]": {"system": "exopolysaccharide of E. coli cells", "experiment": "Fluorescence microscopy of exopolysaccharide staining", "type": "cell-based, Escherichia coli", "from_the_text": "(§2) In testing E. coli, the biofilm-proficient strain MC4100 was selected because a major component of exopolysacchride is colanic acid (Danese et al., 2000; Price and Raivio, 2009)."}, "E. coli strain MC4100": {"system": "E. coli strain MC4100", "experiment": "Submerged biofilm formation, crystal violet staining", "type": "cell-based, Escherichia coli", "settings": "library tested at 500 μM", "method": "(§3) The compounds were tested at 500 μM. Biofilm formation was visualized by crystal violet staining of submerged biofilms.\n(§4) Whether polyamines might prevent biofilm formation by other bacteria that produce an exopolysaccharide matrix was examined. […] The compounds were tested at 500 μM. Biofilm formation was visualized by crystal violet staining of submerged biofilms.\nas §2"}, "[4]": {"system": "B. subtilis wild-type cells", "experiment": "Biofilm formation on solid biofilm medium", "type": "cell-based, Bacillus subtilis", "settings": "1 μl cells mixed with 1 μl (1 mM) polyamine", "method": "B. subtilis wild-type cells were grown to a mid-logarithmic phase and 1 μl of cells was mixed with 1 μl (1 mM) of each polyamine. The mixture was plated on solid biofilm medium.\nB. subtilis wild-type cells were grown to a mid-logarithmic phase and 1 μl of cells was either mixed with PBS (18C) or mixed with 1 μl (1 mM) of each polyamine (18D). The mixture was plated on solid biofilm medium. “3*” refers to 1,5,9-Triazacyclododecane."}, "S. aureus strain SCO1": {"system": "S. aureus strain SCO1", "experiment": "Submerged biofilm formation, crystal violet staining", "type": "cell-based, Staphylococcus aureus", "settings": "norspermidine 10 μM, norspermine 100 μM; library at 500 μM", "method": "as §3, §4\nSimilarly, FIGS. 19A-H show the results of S. aureus strain SC-01 grown to a mid-logarithmic phase and diluted 1:1000 into a 12 wells plate in a TSB medium applied with NaCl (3%) and Glucose (0.5%). The medium was applied with norspermidine (10 μM), norspermine (100 μM) or spermine (500 μM). Planktonic cells were removed (19A-D). Wells were washed once, and incubated with Crystal Violet (0.1%) for 15 mins. Wells were washed twice in DDW (19E-H).\nThe effect of certain polyamines combined with biofilm-inhibiting D-amino acids in Staphylococcus was examined. S. aureus strain SC-01 was grown to a mid-logarithmic phase and diluted 1:1000 into a 12 wells plate in a TSB medium applied with NaCl (3%) and Glucose (0.5%). The medium was applied with either norspermidine or D-tyrosine or both as indicated below each panel. Planktonic cells were removed Wells were washed once, and incubated with Crystal Violet (0.1%) for 15 mins. Wells were washed twice in DDW."}, "[5]": {"system": "P. aeriginosa strain PA14", "experiment": "Biofilm formation on solid M63 medium", "type": "cell-based, Pseudomonas aeruginosa", "settings": "1 μl cells mixed with 1 μl (10 mM) polyamine", "method": "The effect of polyamines on biofilm formation by Pseudomonas was examined. P. aeriginosa strain PA14 were grown to a mid-logarithmic phase and 1 μl of cells was mixed with 1 μl (10 mM) of each polyamine. The mixture was plated on solid M63 medium."}, "[6]": {"system": "exopolysaccharide of S. aureus cells", "experiment": "Fluorescence microscopy of exopolysaccharide staining", "type": "cell-based, Staphylococcus aureus"}, "B. subtilis NCBI 3610": {"system": "B. subtilis NCBI 3610", "experiment": "Cell growth in MSgg medium with shaking", "type": "cell-based, Bacillus subtilis", "settings": "norspermidine 100 μM", "method": "NCBI 3610 was grown in MSgg medium applied with norspermidine (100 μM) with shaking or in untreated medium served as a control (NT). […] Therefore, whether norspermidine interacts directly with the exopolysaccharide was investigated. To attempt to detect such an interaction, dynamic light scattering was used. Dynamic scattering is a standard procedure for measuring the average radius of polymers in which a laser beam is transmitted through a sample containing polymers in solution (Berne, 1976; Orgad et al., 2011; Vinayahan et al., 2010)."}, "[7]": {"system": "exopolysaccharide of B. subtilis NCBI 3610 cells", "experiment": "Fluorescence microscopy of exopolysaccharide with concanavalin A-Texas Red", "type": "cell-based, Bacillus subtilis", "settings": "norspermidine 25 μM, spermidine 1 mM", "from_the_text": "The cells were washed in PBS and stained for exopolysaccharide with a conjugate of concanavalin A with Texas-Red.\nas §1"}, "[8]": {"system": "B. subtilis strain NCBI3610", "experiment": "Pellicle (biofilm) formation inhibition assay in liquid biofilm-inducing medium", "type": "cell-based, Bacillus subtilis", "settings": "for biofilm-inhibitory activity (library of polyamines): B. subtilis; for inhibition of pellicle formation: final concentration of 50 μM; for concentration needed for inhibition of biofilm formation: B. subtilis pellicle formation", "method": "Bacillus subtilis strains PY79, 3610 and their derivatives were grown in Luria-Bertani (LB) medium at 37° C. or MSgg medium (1) at 23° C. Solid media contained 1.5% Bacto agar. When appropriate, antibiotics were added at the following concentrations for growth of B. subtilis: 10 μg per ml of tetracycline, and 5 μg per ml of erythromycin, 500 μg per ml of spectinomycin.\nB. subtilis strain NCBI3610 was grown at 22° C. in 12-well plates in liquid biofilm-inducing medium for 3 or 8 days. Conditioned medium (500 ml) from an 8-day-old culture was concentrated on the C-18 column and eluted step-wise with methanol.\nTo identify the second biofilm-inhibiting factor, high-performance liquid chromatography (HPLC) was carried out on the 25% methanol eluate using a phenyl-hexyl column. […] Cells of NCBI3610 were grown in fresh medium containing PBS buffer (control), norspermidine (100 μM), morpholine (100 μM) HPLC-purified fatty acid (˜100 μM), or spermidine (100 μM).\nPellicle formation of strain NCBI 3610 was tested in the presence of the indicated concentrations of norspermidine (FIG. 1D) or spermidine (FIG. 1E).\nTo identify features of norspermidine important for its biofilm disassembly activity, we tested a library of polyamines in our biofilm inhibition assay (FIGS. 9A, 9B, 10 and Table 2).\nThe effect of polyamines on pellicle formation by B. subtilis was examined. B. subtilis wild-type cells were grown to a mid-logarithmic phase and diluted 1:1000 in biofilm media applied with each polyamine to the final concentration of 50 μM.\nThe effect of cyclic polyamines on biofilm formation by B. subtilis was examined. B. subtilis wild-type cells were grown to a mid-logarithmic phase and diluted 1:1000 in biofilm media (18A) or in a medium applied with cyclic compound 1,5,9-Triazacyclododecane to the final concentration of 50 μM (18B)."}, "B. subtilis pellicles": {"system": "B. subtilis pellicles", "experiment": "Disassembly of pre-formed pellicles (OD600 of medium vs pellicle)", "type": "cell-based, Bacillus subtilis", "settings": "250 μM applied at day 2, additional 24 hrs", "method": "After incubation for the indicated times, pellicle material and the medium were separated and each brought to a volume of 3 ml. After mild sonication, the OD600 was determined for each sample. The % of disassembly represents the OD600 of the medium as a percent of the sum of the OD600 of the medium and the OD600 of the pellicle. […] Thus, D-amino acids and norspermidine act synergistically in preventing biofilm formation and triggering the disassembly of mature biofilms.\nWhether polyamines could trigger disassembly of biofilms formed by B. subtilis was examined. B. subtilis wild-type cells grown in liquid biofilm medium. Cells were grown to mid-logarithmic phase and diluted 1:1000 in liquid biofilm media. At day 2, pre-formed pellicles were applied with either PBS (A) or norspermine (250 μM) (B). Pellicles were incubated for additional 24 hrs."}}, "note": "Entries after “also recorded” stand apart in the source; their conditions may differ.", "data": [{"compound": "NCCCNCCCN", "note": "[Molecule 1, N-(3-aminopropyl)propane-1,3-diamine]", "values": [{"measurement": "reduction of Proteus mirabilis biofilm formation", "setting": "[1]", "value": "sufficient to reduce biofilm formation"}, {"measurement": "effect on residual pellicle of exopolysaccharide mutant", "setting": "[2]; ΔepsH, DS76, 25 μM norspermidine", "value": "little effect"}, {"measurement": "effect on pellicle formation by amyloid fiber mutant", "setting": "[2]; ΔtasA, FC55, 25 μM norspermidine", "value": "abolished pellicle formation"}, {"measurement": "effect on protein component of the matrix (TasA-mCherry)", "setting": "TasA-mCherry", "value": "little or no effect"}, {"measurement": "staining of exopolysaccharide, E. coli", "setting": "[3]", "value": "markedly diminished staining"}, {"measurement": "inhibition of biofilm formation by E. coli", "setting": "E. coli strain MC4100", "value": "inhibited the formation of submerged biofilms"}, {"measurement": "inhibition of biofilm formation on solid biofilm medium", "setting": "[4]", "value": "inhibit biofilm formation"}, {"measurement": "inhibition of biofilm formation by S. aureus", "setting": "S. aureus strain SCO1", "value": "inhibited the formation of submerged biofilms; also recorded: inhibit biofilm formation"}, {"measurement": "inhibition of biofilm formation by Pseudomonas", "setting": "[5]", "value": "inhibit biofilm formation"}, {"measurement": "staining of exopolysaccharide, S. aureus", "setting": "[6]", "value": "markedly diminished staining"}, {"measurement": "cell growth", "setting": "B. subtilis NCBI 3610", "value": "not significantly inhibited"}, {"measurement": "pattern of exopolysaccharide staining", "setting": "[7]", "value": "disrupted the relatively uniform, cell-associated pattern of staining"}, {"measurement": "biofilm-inhibitory activity (library of polyamines)", "setting": "[8]", "value": "exhibited biofilm-inhibitory activity"}, {"measurement": "MBIC- Minimal Biofilm Inhibitory Concentration", "setting": "[8]; B. subtilis biofilm inhibition assay", "value": "25 to 50", "unit": "µM"}, {"measurement": "concentration at which biofilm formation was inhibited", "setting": "[8]; authentic norspermidine, NCBI3610 pellicle", "value": 25, "unit": "µM"}, {"measurement": "inhibition of pellicle formation", "setting": "[8]", "value": "inhibit biofilm formation"}]}, {"compound": "C1CNCCCNCCCNC1", "note": "[c, 1,5,9-triazacyclododecane]", "values": [{"measurement": "inhibition of biofilm formation on solid biofilm medium", "setting": "[4]", "value": "inhibits biofilm formation"}, {"measurement": "inhibition of pellicle formation", "setting": "[8]", "value": "inhibits biofilm formation"}]}, {"compound": "1,3-diaminopropane [Molecule 6]", "values": [{"measurement": "concentration needed for inhibition of biofilm formation", "setting": "[8]", "value": "> 5", "unit": "mM"}]}, {"compound": "NCCCNCCCNCCCN", "note": "[Molecule 2, N′-[3-(3-aminopropylamino)propyl]propane-1,3-diamine]", "values": [{"measurement": "reduction of Proteus mirabilis biofilm formation", "setting": "[1]", "value": "sufficient to reduce biofilm formation"}, {"measurement": "disassembly of pre-formed pellicles", "setting": "B. subtilis pellicles", "value": "triggered disassembly"}, {"measurement": "inhibition of biofilm formation by E. coli", "setting": "E. coli strain MC4100", "value": "inhibited the formation of submerged biofilms"}, {"measurement": "inhibition of biofilm formation on solid biofilm medium", "setting": "[4]", "value": "inhibit biofilm formation"}, {"measurement": "inhibition of biofilm formation by S. aureus", "setting": "S. aureus strain SCO1", "value": "inhibited the formation of submerged biofilms; also recorded: inhibit biofilm formation"}, {"measurement": "inhibition of biofilm formation by Pseudomonas", "setting": "[5]", "value": "inhibit biofilm formation"}, {"measurement": "biofilm-inhibitory activity (library of polyamines)", "setting": "[8]", "value": "exhibited biofilm-inhibitory activity"}, {"measurement": "inhibition of pellicle formation", "setting": "[8]", "value": "inhibit biofilm formation"}]}, {"compound": "speramide [reference compound]", "values": [{"measurement": "inhibition of biofilm formation on solid biofilm medium", "setting": "[4]", "value": "do not"}, {"measurement": "inhibition of pellicle formation", "setting": "[8]", "value": "do not"}]}, {"compound": "NCCCCNCCCN", "note": "[Molecule 3, spermidine, reference compound]", "values": [{"measurement": "inhibition of biofilm formation on solid biofilm medium", "setting": "[4]", "value": "do not"}, {"measurement": "pattern of exopolysaccharide staining", "setting": "[7]", "value": "No such effect"}, {"measurement": "concentration needed for inhibition of biofilm formation", "setting": "[8]", "value": "> 2", "unit": "mM"}, {"measurement": "inhibition of pellicle formation", "setting": "[8]", "value": "do not"}]}, {"compound": "NCCCN(CCCN)CCCN", "note": "[Molecule 21, N^1,N^1-bis(3-aminopropyl)propane-1,3-diamine]", "values": [{"measurement": "biofilm-inhibitory activity (library of polyamines)", "setting": "[8]", "value": "did not block activity"}]}]}
